Measurements taken from ChEMBL document CHEMBL1955734, “JFCR39, a panel of 39 human cancer cell lines, and its application in the discovery and development of anticancer drugs” (Bioorg Med Chem, 2012).

Assays:
[1] = molecular target: Telomerase reverse transcriptase (Homo sapiens, UniProt O14746); test: Inhibition of telomerase
PC-3 = test: Growth inhibition of human PC3 cells; format: functional, cell-based
NCI-H23 = test: Growth inhibition of human NCI-H23 cells; format: functional, cell-based
MKN-7 = test: Growth inhibition of human MKN7 cells; format: functional, cell-based
MDA-MB-231 = test: Growth inhibition of human MDA-MB-231 cells; format: functional, cell-based
HCT-116 = test: Growth inhibition of human HCT116 cells; format: functional, cell-based
SNB-78 = test: Growth inhibition of human SNB78 cells; format: functional, cell-based
HCT-15 = test: Growth inhibition of human HCT15 cells; format: functional, cell-based
SF-268 = test: Growth inhibition of human SF268 cells; format: functional, cell-based
NCI-H522 = test: Growth inhibition of human NCI-H522 cells; format: functional, cell-based
[2] = Growth inhibition of human HBC5 cells; format: functional, cell-based
DMS-114 = test: Growth inhibition of human DMS114 cells; format: functional, cell-based
OVCAR-4 = test: Growth inhibition of human OVCAR4 cells; format: functional, cell-based
U-251 = test: Growth inhibition of human U251 cells; format: functional, cell-based
DU-145 = test: Growth inhibition of human DU145 cells; format: functional, cell-based
SNB-75 = test: Growth inhibition of human SNB75 cells; format: functional, cell-based
[3] = Growth inhibition of human RXF631L cells; format: functional; conditions: RXF 631
SF-539 = test: Growth inhibition of human SF539 cells; format: functional, cell-based
[4] = Growth inhibition of human HBC4 cells; format: functional, cell-based
ACHN = test: Growth inhibition of human ACHN cells; format: functional, cell-based
SK-OV-3 = test: Growth inhibition of human SKOV3 cells; format: functional, cell-based
LOX IMVI = test: Growth inhibition of human LOXIMVI cells; format: functional, cell-based
[5] = Growth inhibition of human MKN1 cells; format: functional, cell-based; conditions: MKN-1
HT-29 = test: Growth inhibition of human HT-29 cells; format: functional, cell-based
MKN-28 = test: Growth inhibition of human MKN28 cells; format: functional, cell-based
[6] = Growth inhibition of human NCI-H483 cells; format: functional, cell-based
OVCAR-8 = test: Growth inhibition of human OVCAR8 cells; format: functional, cell-based
DMS-273 = test: Growth inhibition of human DMS273 cells; format: functional, cell-based
A549 = test: Growth inhibition of human A549 cells; format: functional, cell-based
KM12 = test: Growth inhibition of human KM12 cells; format: functional, cell-based
MKN-74 = test: Growth inhibition of human MKN74 cells; format: functional, cell-based
OVCAR-3 = test: Growth inhibition of human OVCAR3 cells; format: functional, cell-based
HCC 2998 = test: Growth inhibition of human HCC2998 cells; format: functional, cell-based
[7] = Growth inhibition of human BSY1 cells; format: functional, cell-based; conditions: BSY-1
St-4 = test: Growth inhibition of human St-4 cells; format: functional, cell-based
MKN-45 = test: Growth inhibition of human MKN45 cells; format: functional, cell-based
SF-295 = test: Growth inhibition of human SF295 cells; format: functional, cell-based
NCI-H226 = test: Growth inhibition of human NCI-H226 cells; format: functional, cell-based
MCF7 = test: Growth inhibition of human MCF7 cells; format: functional, cell-based
OVCAR-5 = test: Growth inhibition of human OVCAR5 cells; format: functional, cell-based

Sequence of Telomerase reverse transcriptase (O14746 whole entry): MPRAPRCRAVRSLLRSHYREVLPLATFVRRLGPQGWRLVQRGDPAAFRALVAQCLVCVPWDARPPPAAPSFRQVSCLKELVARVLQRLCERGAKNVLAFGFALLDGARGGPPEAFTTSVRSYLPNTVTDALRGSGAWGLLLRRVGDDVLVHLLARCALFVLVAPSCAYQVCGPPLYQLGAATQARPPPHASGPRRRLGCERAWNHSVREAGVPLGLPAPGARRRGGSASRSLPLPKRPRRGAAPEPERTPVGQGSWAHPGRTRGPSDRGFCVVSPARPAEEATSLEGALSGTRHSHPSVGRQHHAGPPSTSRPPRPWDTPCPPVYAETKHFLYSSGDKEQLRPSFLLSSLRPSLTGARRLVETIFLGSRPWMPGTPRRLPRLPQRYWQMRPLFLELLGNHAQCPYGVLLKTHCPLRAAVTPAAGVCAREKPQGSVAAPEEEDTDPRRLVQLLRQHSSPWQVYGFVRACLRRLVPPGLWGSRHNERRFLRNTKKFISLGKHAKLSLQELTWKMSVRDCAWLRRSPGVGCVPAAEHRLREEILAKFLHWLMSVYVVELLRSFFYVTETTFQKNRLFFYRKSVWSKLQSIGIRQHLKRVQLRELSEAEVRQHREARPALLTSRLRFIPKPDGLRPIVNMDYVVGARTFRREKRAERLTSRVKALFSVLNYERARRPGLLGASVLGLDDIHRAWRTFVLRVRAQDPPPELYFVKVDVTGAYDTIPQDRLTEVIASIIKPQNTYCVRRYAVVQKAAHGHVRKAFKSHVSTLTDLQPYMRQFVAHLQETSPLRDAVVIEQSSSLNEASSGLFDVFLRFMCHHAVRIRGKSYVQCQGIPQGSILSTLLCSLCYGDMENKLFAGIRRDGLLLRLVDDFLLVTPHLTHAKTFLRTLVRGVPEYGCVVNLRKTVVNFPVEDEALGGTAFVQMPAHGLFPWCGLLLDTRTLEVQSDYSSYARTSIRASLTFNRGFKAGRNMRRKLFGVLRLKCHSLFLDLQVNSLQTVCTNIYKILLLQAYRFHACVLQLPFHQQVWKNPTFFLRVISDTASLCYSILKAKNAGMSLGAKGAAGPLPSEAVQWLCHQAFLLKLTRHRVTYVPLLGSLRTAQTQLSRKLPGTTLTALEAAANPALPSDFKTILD

SMILES: CCn1c(=O)/c(=C2\Sc3ccccc3N2C)s/c1=C\c1scc(C)[n+]1CC
- IC50 [1]: 2 µM

SMILES: Cn1cc(NC(=O)CC[S+](C)C)cc1-c1nc2cc(C(=O)Nc3ccc(N(CCCl)CCCl)cc3)ccc2[nH]1
- IC50 (PC-3): 0.71 µM
- IC50 (NCI-H23): 0.71 µM
- IC50 (MKN-7): 0.71 µM
- IC50 (MDA-MB-231): 0.71 µM
- IC50 (HCT-116): 0.71 µM
- IC50 (SNB-78): 0.71 µM
- IC50 (HCT-15): 0.71 µM
- IC50 (SF-268): 0.71 µM
- IC50 (NCI-H522): 0.71 µM
- IC50 [2]: 0.71 µM
- IC50 (DMS-114): 0.71 µM
- IC50 (OVCAR-4): 0.71 µM
- IC50 (U-251): 0.71 µM
- IC50 (DU-145): 0.71 µM
- IC50 (SNB-75): 0.71 µM
- IC50 [3]: 0.71 µM
- IC50 (SF-539): 0.71 µM
- IC50 [4]: 0.71 µM
- IC50 (ACHN): 0.71 µM
- IC50 (SK-OV-3): 0.71 µM
- IC50 (LOX IMVI): 0.71 µM
- IC50 [5]: 0.71 µM
- IC50 (HT-29): 0.71 µM
- IC50 (MKN-28): 0.71 µM
- IC50 [6]: 0.71 µM
- IC50 (OVCAR-8): 0.71 µM
- IC50 (DMS-273): 0.71 µM
- IC50 (A549): 0.71 µM
- IC50 (KM12): 0.71 µM
- IC50 (MKN-74): 0.71 µM
- IC50 (OVCAR-3): 0.71 µM
- IC50 (HCC 2998): 0.71 µM
- IC50 [7]: 0.71 µM
- IC50 (St-4): 0.71 µM
- IC50 (MKN-45): 0.71 µM
- IC50 (SF-295): 0.71 µM
- IC50 (NCI-H226): 0.71 µM
- IC50 (MCF7): 0.71 µM
- IC50 (OVCAR-5): 0.71 µM

SMILES: CCn1c(=O)/c(=C2\Sc3ccccc3N2C)s/c1=C\c1cccc[n+]1CC
- IC50 [1]: 5 µM

SMILES: COc1ccc2cc3[n+](cc2c1OC)CCc1cc2c(cc1-3)OCO2 [BERBERINE]
- IC50 [1]: 37 µM

SMILES: Cn1c(=O)n(-c2ccc(C(C)(C)C#N)cc2)c2c3cc(-c4cnc5ccccc5c4)ccc3ncc21 [DACTOLISIB]
- GI50 (PC-3): 0.00219 µM
- GI50 (NCI-H23): 0.0229 µM
- GI50 (MKN-7): 0.0209 µM
- GI50 (MDA-MB-231): 0.00813 µM
- GI50 (HCT-116): 0.0246 µM
- GI50 (SNB-78): 0.00224 µM
- GI50 (HCT-15): 0.00933 µM
- GI50 (SF-268): 0.012 µM
- GI50 (NCI-H522): 0.00355 µM
- GI50 [2]: 0.0135 µM
- GI50 (DMS-114): 0.00407 µM
- GI50 (OVCAR-4): 0.00263 µM
- GI50 (U-251): 0.0219 µM
- GI50 (DU-145): 0.00692 µM
- GI50 (SNB-75): 0.00263 µM
- GI50 [3]: 0.00617 µM
- GI50 (SF-539): 0.00257 µM
- GI50 [4]: 0.00246 µM
- GI50 (ACHN): 0.0112 µM
- GI50 (SK-OV-3): 0.00389 µM
- GI50 (LOX IMVI): 0.00219 µM
- GI50 [5]: 0.00389 µM
- GI50 (HT-29): 0.0178 µM
- GI50 (MKN-28): 0.0851 µM
- GI50 [6]: 0.00776 µM
- GI50 (OVCAR-8): 0.0144 µM
- GI50 (DMS-273): 0.0158 µM
- GI50 (A549): 0.00851 µM
- GI50 (KM12): 0.0288 µM
- GI50 (MKN-74): 0.038 µM
- GI50 (OVCAR-3): 0.00676 µM
- GI50 (HCC 2998): 0.00891 µM
- GI50 [7]: 0.00331 µM
- GI50 (St-4): 0.0339 µM
- GI50 (MKN-45): 0.00457 µM
- GI50 (SF-295): 0.0049 µM
- GI50 (NCI-H226): 0.00363 µM
- GI50 (MCF7): 0.00692 µM
- GI50 (OVCAR-5): 0.0269 µM

SMILES: CS(=O)(=O)N1CCN(Cc2cc3nc(-c4cccc5[nH]ncc45)nc(N4CCOCC4)c3s2)CC1 [PICTILISIB]
- GI50 (PC-3): 0.219 µM
- GI50 (NCI-H23): 1.86 µM
- GI50 (MKN-7): 0.316 µM
- GI50 (MDA-MB-231): 3.47 µM
- GI50 (HCT-116): 1.35 µM
- GI50 (SNB-78): 0.302 µM
- GI50 (HCT-15): 0.759 µM
- GI50 (SF-268): 4.07 µM
- GI50 (NCI-H522): 0.263 µM
- GI50 [2]: 0.251 µM
- GI50 (DMS-114): 1.2 µM
- GI50 (OVCAR-4): 1.74 µM
- GI50 (U-251): 3.16 µM
- GI50 (DU-145): 1.41 µM
- GI50 (SNB-75): 0.0794 µM
- GI50 [3]: 0.132 µM
- GI50 (SF-539): 0.316 µM
- GI50 [4]: 0.933 µM
- GI50 (ACHN): 0.851 µM
- GI50 (SK-OV-3): 0.302 µM
- GI50 (LOX IMVI): 0.513 µM
- GI50 [5]: 0.0832 µM
- GI50 (HT-29): 0.501 µM
- GI50 (MKN-28): 3.02 µM
- GI50 [6]: 0.275 µM
- GI50 (OVCAR-8): 1.86 µM
- GI50 (DMS-273): 0.372 µM
- GI50 (A549): 0.708 µM
- GI50 (KM12): 1.74 µM
- GI50 (MKN-74): 0.955 µM
- GI50 (OVCAR-3): 0.195 µM
- GI50 (HCC 2998): 0.513 µM
- GI50 [7]: 0.126 µM
- GI50 (St-4): 2.75 µM
- GI50 (MKN-45): 0.282 µM
- GI50 (SF-295): 0.427 µM
- GI50 (NCI-H226): 0.617 µM
- GI50 (MCF7): 0.0468 µM
- GI50 (OVCAR-5): 0.55 µM

SMILES: FC(F)c1nc2ccccc2n1-c1nc(N2CCOCC2)nc(N2CCOCC2)n1 [ZSTK-474]
- GI50 (PC-3): 0.145 µM
- GI50 (NCI-H23): 1.05 µM
- GI50 (MKN-7): 0.575 µM
- GI50 (MDA-MB-231): 0.813 µM
- GI50 (HCT-116): 1.38 µM
- GI50 (SNB-78): 0.355 µM
- GI50 (HCT-15): 0.525 µM
- GI50 (SF-268): 1.48 µM
- GI50 (NCI-H522): 0.263 µM
- GI50 [2]: 0.17 µM
- GI50 (DMS-114): 0.479 µM
- GI50 (OVCAR-4): 1.62 µM
- GI50 (U-251): 1.82 µM
- GI50 (DU-145): 0.724 µM
- GI50 (SNB-75): 0.155 µM
- GI50 [3]: 0.316 µM
- GI50 (SF-539): 0.479 µM
- GI50 [4]: 0.912 µM
- GI50 (ACHN): 0.603 µM
- GI50 (SK-OV-3): 0.398 µM
- GI50 (LOX IMVI): 0.288 µM
- GI50 [5]: 0.245 µM
- GI50 (HT-29): 0.646 µM
- GI50 (MKN-28): 1.95 µM
- GI50 [6]: 0.372 µM
- GI50 (OVCAR-8): 1.26 µM
- GI50 (DMS-273): 0.339 µM
- GI50 (A549): 0.676 µM
- GI50 (KM12): 2.24 µM
- GI50 (MKN-74): 1.02 µM
- GI50 (OVCAR-3): 0.389 µM
- GI50 (HCC 2998): 0.851 µM
- GI50 [7]: 0.275 µM
- GI50 (St-4): 1.91 µM
- GI50 (MKN-45): 0.245 µM
- GI50 (SF-295): 0.347 µM
- GI50 (NCI-H226): 0.407 µM
- GI50 (MCF7): 0.182 µM
- GI50 (OVCAR-5): 1.2 µM
